Results from publication PMC9071130, “Functional analysis of LFRFamide signaling in Pacific abalone, Haliotis discus hannai” (PLoS ONE, 2022).

Experiments:
Hdh-sNPFR [1] = experiment: CRE-Luc reporter activation in Hdh-sNPFR-transfected HEK293 cells; assay type: cell-based, Haliotis discus hannai; settings: peptide 10^−6 M, 6 h, no forskolin, n = 3
Procedure: (§1) HEK293 cells were grown in monolayer culture in Dulbecco’s modified Eagle medium (Gibco, Loughborough, UK) with 10% fetal bovine serum (HyClone, GE Healthcare, Chicago, IL, USA) and 1% penicillin/streptomycin (Invitrogen, Carlsbad, CA, USA) at 37°C, 5% CO2. HEK293 cells were seeded in 24-well plates and the transfection was performed using a formulated polyethylenimine solution (Sigma-Aldrich, St. Louis, MO, USA) as previously described. […] The cells were harvested with a cell lysis buffer (Promega, Madison, WI, USA) and luciferase activities were assayed using a microplate luminometer (Berthold, Bad Wildbad, Germany) and normalized by β-galactosidase values detected on a microplate reader (Tecan, Männedorf, Switzerland) at 405 nm.
(§2) Fig 5 Effect of LFRFa peptides on luciferase reporter activities in Hdh-sNPFR-expressing HEK293 cells. […] Intracellular cAMP accumulation was measured by CRE-Luc reporter activities in Hdh-sNPFR- or maternal plasmid pcDNA3-transfected HEK293 cells. The relative activities were determined in response to 10^−5 M of FKN and 10^−6 M of peptide as indicated. […]

Hdh-sNPFR [2] = experiment: SRE-Luc reporter activation in Hdh-sNPFR-transfected HEK293 cells; assay type: cell-based, Haliotis discus hannai; settings: peptide 10^−6 M, 6 h, n = 3
Procedure: as §1, §2

Hdh-sNPFR [3] = experiment: Internalization of HA-tagged Hdh-sNPFR in HEK293 cells (immunocytochemistry, confocal microscopy); assay type: cell-based, Haliotis discus hannai; settings: HEK293 cells with HA-tagged Hdh-sNPFR; peptide 10^−6 M; 5 and 30 min
Procedure: To detect Hdh-sNPFR expression, HEK293 cells were seeded on poly-D-lysine hydrobromide (Sigma-Aldrich)-coated coverslips in 24-well plates. The Hdh-sNPFR expression plasmid was transfected into HEK293 cells as described above. At approximately 30 h post-transfection, the cells were treated with LFRFa peptides and NPF for 5 min and 30 min, respectively. The cells were fixed with 4% paraformaldehyde for 10 min, followed by treatment with 1% bovine serum albumin in phosphate-buffered saline with 0.1% Tween 20 (PBST) for 30 min at room temperature to block non-specific binding. The HEK293 cells were treated with a monoclonal HA primary antibody (1:5000 dilution; H9658, Sigma-Aldrich) in PBST at 4°C for 16 h. After washing with PBST three times for 10 min each, the cells were treated with a secondary antibody [anti-mouse IgG (H+L), F(ab’)2Fragment (AlexaFluor 488 Conjugate), 1:2000 dilution; Cell Signaling, Danvers, MA, USA] in PBST at room temperature for 1 h in a light-blocked chamber. After washing with PBST three times for 10 min each, the cells were mounted with a mounting medium including DAPI (Abcam, Cambridge, UK). The expression of Hdh-sNPFR was monitored with a confocal laser-scanning microscope (FV3000, Olympus, Tokyo, Japan).
Fig 7 Subcellular localization and internalization of Hdh-sNPFR. […]

Pacific abalone = settings: injection of NPF peptide; earlier paper of the authors; cited from earlier work
Text: Along with insect sNPFs, LFRFa peptides convert feeding motor programs from ingestive to egestive, depress feeding muscle contractions in Aplysia californica, and increase rectal contractions in Sepia officinalis.

QDAMLAPPDRPSEFRSPDQLRQYLKALNEYYAIVGRPRF-NH2 [NPF, Pacific abalone neuropeptide F, 39 amino acids, amidated, used as comparison peptide]
Activation of CRE-Luc reporter (Hdh-sNPFR [1]): did not activate
Activation of SRE-Luc reporter (Hdh-sNPFR [2]): did not activate
Internalization of Hdh-sNPFR from cell membrane to cytoplasm (Hdh-sNPFR [3]): did not undergo redistribution from the cell surface to the cytoplasm
Food consumption in Pacific abalone after NPF injection (Pacific abalone): increased food consumption
